Tested on: MV4-11 cells
Assay: In vitro proliferation (Cell Titer Glo, 6 days) of Compound 51 in combination with gilteritinib, midostaurin or decitabine, MV4-11
Format: cell-based
Parameters: key to Synergy/antagonism call (maxR test), MV4-11 Cell Proliferation: synergy is indicated by “**”; antagonism is indicated by “*”; no asterisk: absence of any asterisk indicates an additive effect
Method: 3) In Vitro Proliferation—Menin-MLL Inhibitor in Combination with FLT3 Inhibitor (Gilteritinib or Midostaurin), DNA Intercalating Agent (Idarubicin) or Hypomethylating Agent (Decitabine)
The effect of Compound 51 in combination with gilteritinib, midostaurin, idarubicin or decitabine was determined in proliferation assays.
AML cell lines MOLM-13, OCI-AML3 and MV4-11 were purchased from DSMZ. MOLM-13 were grown in RPMI medium supplemented with 10% Fetal Bovine Serum (FBS) and 1% penicillin/streptomycin. MV4-11 cells were grown in IMDM medium supplemented with 10% FBS and 1% penicillin/streptomycin. OCI-AML3 cells were cultured in 80-90% alpha-MEM (with or without ribo- and deoxyribonucleosides)+10-20% FBS. All cell lines were cultured at 37° C. in 5% CO2 atmosphere.
AML cell lines (10-20×10^3 cells/well) were seeded in 96-well plates and grown for 6 days in serum (10%)-containing medium in the presence or absence of inhibitors at the indicated concentrations. Proliferation was analyzed by means of a Cell Titer Glo assay using the […] (Promega, Madison, WI, USA), according to the manufacturer's instructions. Data are mean with standard deviation from two to four independent experiments in technical triplicates.
R-based Biochemically Intuitive Generalized Loewe (BIGL) model implemented with a highest single agent (HSA) null model. Specifically, the BIGL methodology was applied to calculate drug-drug interactions (Van der Borght, K., Tourny, A., Bagdziunas, R. et al. BIGL: Biochemically Intuitive Generalized Loewe null model for prediction of the expected combined effect compatible with partial agonism and antagonism. Sci Rep 7, 17935 (2017); Thas, O., Tourny, A., Verbist, B., Hawinkel, S., Nazarov, M., Mutambanengwe, K., & Bijnens, L. Statistical detection of synergy: New methods and a comparative study. Pharmaceutical Statistics (2021)).
Synergy matrix results of the BIGL analysis of the cell line data with HSA as mean model calculated on the basis of the cellular metabolic activity using Cell Titer-Glo assay. Bootstrap confidence intervals are indicated. Effect sizes and their confidence intervals are shown. […] No significant average effect if zero is included in the interval.

[1] = Compound 51 0.01 μm + Decitabine 0.0015 μM
[2] = Compound 51 0.01 μm + Decitabine 0.035 μM
[3] = Compound 51 0.01 μm + Decitabine 0.15 μM
[4] = Compound 51 0.01 μm + Gilteritinib 0.0005 μM
[5] = Compound 51 0.05 μm + Decitabine 0.15 μM
[6] = Compound 51 0.05 μm + Decitabine 1.5 μM
[7] = Compound 51 0.05 μm + Gilteritinib 0.0005 μM

SMILES: CC(=O)N1CCC(CN2CC[C@@H](Cc3cn(-c4ccc(F)cc4C(=O)N(C)C(C)C)c4cncc(C)c34)C2)CC1 [Compound 51]
- Effect size (BIGL, HSA null model), MV4-11 Cell Proliferation (Compound 51 0.0001 μm + Midostaurin 0.0012 μM): −0.03
- Effect size (BIGL, HSA null model), MV4-11 Cell Proliferation (Compound 51 0.0001 μm + Midostaurin 0.006 μM): 0.13
- Effect size (BIGL, HSA null model), MV4-11 Cell Proliferation (Compound 51 0.0001 μm + Midostaurin 0.025 μM): 0.02
- Effect size (BIGL, HSA null model), MV4-11 Cell Proliferation (Compound 51 0.0001 μm + Midostaurin 0.05 μM): −0.05
- Effect size (BIGL, HSA null model), MV4-11 Cell Proliferation (Compound 51 0.0001 μm + Midostaurin 0.1 μM): −0.02
- Effect size (BIGL, HSA null model), MV4-11 Cell Proliferation (Compound 51 0.0001 μm + Midostaurin 0.5 μM): 0.03
- Effect size (BIGL, HSA null model), MV4-11 Cell Proliferation (Compound 51 0.001 μm + Decitabine 0.0015 μM): −0.01
- Effect size (BIGL, HSA null model), MV4-11 Cell Proliferation (Compound 51 0.001 μm + Decitabine 0.035 μM): −0.03
- Effect size (BIGL, HSA null model), MV4-11 Cell Proliferation (Compound 51 0.001 μm + Decitabine 0.15 μM): 0
- Effect size (BIGL, HSA null model), MV4-11 Cell Proliferation (Compound 51 0.001 μm + Decitabine 1.5 μM): −0.05
- Effect size (BIGL, HSA null model), MV4-11 Cell Proliferation (Compound 51 0.001 μm + Decitabine 3 μM): −0.04
- Effect size (BIGL, HSA null model), MV4-11 Cell Proliferation (Compound 51 0.001 μm + Gilteritinib 0.0005 μM): −0.03
- Effect size (BIGL, HSA null model), MV4-11 Cell Proliferation (Compound 51 0.001 μm + Gilteritinib 0.005 μM): −0.01
- Effect size (BIGL, HSA null model), MV4-11 Cell Proliferation (Compound 51 0.001 μm + Gilteritinib 0.01 μM): −0.03
- Effect size (BIGL, HSA null model), MV4-11 Cell Proliferation (Compound 51 0.001 μm + Gilteritinib 0.05 μM): −0.01
- Effect size (BIGL, HSA null model), MV4-11 Cell Proliferation (Compound 51 0.001 μm + Gilteritinib 0.3 μM): −0.01
- Effect size (BIGL, HSA null model), MV4-11 Cell Proliferation (Compound 51 0.001 μm + Gilteritinib 1 μM): −0.01
- Effect size (BIGL, HSA null model), MV4-11 Cell Proliferation (Compound 51 0.001 μm + Midostaurin 0.0012 μM): −0.02
- Effect size (BIGL, HSA null model), MV4-11 Cell Proliferation (Compound 51 0.001 μm + Midostaurin 0.006 μM): −0.01
- Effect size (BIGL, HSA null model), MV4-11 Cell Proliferation (Compound 51 0.001 μm + Midostaurin 0.025 μM): 0.05
- Effect size (BIGL, HSA null model), MV4-11 Cell Proliferation (Compound 51 0.001 μm + Midostaurin 0.05 μM): 0.07
- Effect size (BIGL, HSA null model), MV4-11 Cell Proliferation (Compound 51 0.001 μm + Midostaurin 0.1 μM): −0.03
- Effect size (BIGL, HSA null model), MV4-11 Cell Proliferation (Compound 51 0.001 μm + Midostaurin 0.5 μM): 0.03
- Effect size (BIGL, HSA null model), MV4-11 Cell Proliferation [1]: −0.1
- Synergy/antagonism call (maxR test), MV4-11 Cell Proliferation [1]: **
- Effect size (BIGL, HSA null model), MV4-11 Cell Proliferation [2]: −0.11
- Synergy/antagonism call (maxR test), MV4-11 Cell Proliferation [2]: **
- Effect size (BIGL, HSA null model), MV4-11 Cell Proliferation [3]: −0.23
- Synergy/antagonism call (maxR test), MV4-11 Cell Proliferation [3]: **
- Effect size (BIGL, HSA null model), MV4-11 Cell Proliferation (Compound 51 0.01 μm + Decitabine 1.5 μM): 0.01
- Effect size (BIGL, HSA null model), MV4-11 Cell Proliferation (Compound 51 0.01 μm + Decitabine 3 μM): −0.05
- Effect size (BIGL, HSA null model), MV4-11 Cell Proliferation [4]: −0.36
- Synergy/antagonism call (maxR test), MV4-11 Cell Proliferation [4]: **
- Effect size (BIGL, HSA null model), MV4-11 Cell Proliferation (Compound 51 0.01 μm + Gilteritinib 0.005 μM): −0.02
- Effect size (BIGL, HSA null model), MV4-11 Cell Proliferation (Compound 51 0.01 μm + Gilteritinib 0.01 μM): −0.02
- Effect size (BIGL, HSA null model), MV4-11 Cell Proliferation (Compound 51 0.01 μm + Gilteritinib 0.05 μM): −0.02
- Effect size (BIGL, HSA null model), MV4-11 Cell Proliferation (Compound 51 0.01 μm + Gilteritinib 0.3 μM): −0.02
- Effect size (BIGL, HSA null model), MV4-11 Cell Proliferation (Compound 51 0.01 μm + Gilteritinib 1 μM): −0.02
- Effect size (BIGL, HSA null model), MV4-11 Cell Proliferation (Compound 51 0.01 μm + Midostaurin 0.0012 μM): −0.06
- Effect size (BIGL, HSA null model), MV4-11 Cell Proliferation (Compound 51 0.01 μm + Midostaurin 0.006 μM): −0.13
- Effect size (BIGL, HSA null model), MV4-11 Cell Proliferation (Compound 51 0.01 μm + Midostaurin 0.025 μM): −0.14
- Effect size (BIGL, HSA null model), MV4-11 Cell Proliferation (Compound 51 0.01 μm + Midostaurin 0.05 μM): −0.11
- Effect size (BIGL, HSA null model), MV4-11 Cell Proliferation (Compound 51 0.01 μm + Midostaurin 0.1 μM): −0.04
- Effect size (BIGL, HSA null model), MV4-11 Cell Proliferation (Compound 51 0.01 μm + Midostaurin 0.5 μM): 0.03
- Effect size (BIGL, HSA null model), MV4-11 Cell Proliferation (Compound 51 0.05 μm + Decitabine 0.0015 μM): 0.02
- Effect size (BIGL, HSA null model), MV4-11 Cell Proliferation (Compound 51 0.05 μm + Decitabine 0.035 μM): −0.07
- Effect size (BIGL, HSA null model), MV4-11 Cell Proliferation [5]: −0.23
- Synergy/antagonism call (maxR test), MV4-11 Cell Proliferation [5]: **
- Effect size (BIGL, HSA null model), MV4-11 Cell Proliferation [6]: −0.11
- Synergy/antagonism call (maxR test), MV4-11 Cell Proliferation [6]: **
- Effect size (BIGL, HSA null model), MV4-11 Cell Proliferation (Compound 51 0.05 μm + Decitabine 3 μM): −0.06
- Effect size (BIGL, HSA null model), MV4-11 Cell Proliferation [7]: −0.18
- Synergy/antagonism call (maxR test), MV4-11 Cell Proliferation [7]: **
- Effect size (BIGL, HSA null model), MV4-11 Cell Proliferation (Compound 51 0.05 μm + Gilteritinib 0.005 μM): −0.03
- Effect size (BIGL, HSA null model), MV4-11 Cell Proliferation (Compound 51 0.05 μm + Gilteritinib 0.01 μM): −0.02
- Effect size (BIGL, HSA null model), MV4-11 Cell Proliferation (Compound 51 0.05 μm + Gilteritinib 0.05 μM): −0.02
